Results as given in ChEMBL document CHEMBL2007661, “Compounds: GSK PKIS; Assays: UNC Frye lab” (2012).
“And” between values parts separate entries of the source, which are not always exact repeats. Equal entries are not always repeated.

Key:
[1] = molecular target: T1, Inhibitor of nuclear factor kappa-B kinase subunit epsilon (Homo sapiens) (UniProt Q14164); conditions: at 1 µM
T1 sequence (whole entry): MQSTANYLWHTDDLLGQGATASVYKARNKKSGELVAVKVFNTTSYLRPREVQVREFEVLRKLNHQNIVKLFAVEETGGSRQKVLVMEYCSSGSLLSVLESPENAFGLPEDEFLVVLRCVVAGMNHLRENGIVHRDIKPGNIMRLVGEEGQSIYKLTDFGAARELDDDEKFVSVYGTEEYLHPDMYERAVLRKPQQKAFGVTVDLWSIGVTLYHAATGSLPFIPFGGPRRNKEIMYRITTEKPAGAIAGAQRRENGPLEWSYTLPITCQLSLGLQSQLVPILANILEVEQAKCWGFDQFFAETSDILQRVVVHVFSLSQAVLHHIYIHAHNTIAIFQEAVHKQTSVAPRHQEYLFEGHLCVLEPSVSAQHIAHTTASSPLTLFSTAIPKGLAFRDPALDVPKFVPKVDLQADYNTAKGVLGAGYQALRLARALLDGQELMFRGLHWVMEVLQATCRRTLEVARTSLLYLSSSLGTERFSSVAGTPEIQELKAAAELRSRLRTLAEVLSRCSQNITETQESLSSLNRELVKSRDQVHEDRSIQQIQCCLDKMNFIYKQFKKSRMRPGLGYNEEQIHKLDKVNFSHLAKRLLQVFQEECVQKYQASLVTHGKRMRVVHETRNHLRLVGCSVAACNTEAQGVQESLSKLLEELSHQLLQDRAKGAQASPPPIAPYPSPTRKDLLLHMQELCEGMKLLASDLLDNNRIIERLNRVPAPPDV

[2] = molecular target: T2, Inhibitor of nuclear factor kappa-B kinase subunit beta (Homo sapiens) (UniProt O14920); conditions: at 1 µM
T2 sequence (whole entry): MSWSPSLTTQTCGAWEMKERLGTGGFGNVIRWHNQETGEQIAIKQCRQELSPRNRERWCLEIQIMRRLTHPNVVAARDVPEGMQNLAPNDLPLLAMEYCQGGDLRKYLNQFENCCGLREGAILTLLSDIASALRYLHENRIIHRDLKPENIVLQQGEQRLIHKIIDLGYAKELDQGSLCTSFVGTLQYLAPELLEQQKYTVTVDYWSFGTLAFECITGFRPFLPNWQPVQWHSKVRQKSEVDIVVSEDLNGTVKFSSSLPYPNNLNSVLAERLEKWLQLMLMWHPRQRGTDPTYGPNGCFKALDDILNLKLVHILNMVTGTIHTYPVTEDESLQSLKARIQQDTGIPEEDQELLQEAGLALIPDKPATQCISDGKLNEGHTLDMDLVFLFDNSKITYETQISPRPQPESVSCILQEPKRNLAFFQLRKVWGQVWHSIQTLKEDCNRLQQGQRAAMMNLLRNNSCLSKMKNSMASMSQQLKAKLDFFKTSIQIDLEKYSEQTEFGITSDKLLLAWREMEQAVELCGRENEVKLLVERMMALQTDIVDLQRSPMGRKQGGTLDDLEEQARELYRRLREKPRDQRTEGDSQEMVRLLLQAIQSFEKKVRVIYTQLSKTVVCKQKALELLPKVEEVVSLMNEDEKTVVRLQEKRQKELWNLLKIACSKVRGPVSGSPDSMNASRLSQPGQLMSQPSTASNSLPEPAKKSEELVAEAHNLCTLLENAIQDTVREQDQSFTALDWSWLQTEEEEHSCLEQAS

SMILES | inhibition [1] | inhibition [2]
COc1cccc(-c2c[nH]c3c(N/N=C/c4ccncc4)ncnc23)c1 | 35% and 33% | -3% and -6%
c1cnn2ncc(-c3ccnc(Nc4ccc5c(c4)OCCO5)n3)c2c1 | 23% and 21% | -4%
COc1ccc2cc(-c3c(-c4ccncc4)nc(-c4ccc([S+](C)[O-])cc4C)n3C)ccc2c1 (stereo not given) | -1% and -2% | 1% and 0%
CC(C)=Cc1cccc2c1/C(=N/Nc1ccc(S(N)(=O)=O)cc1)C(=O)N2 | 33% | -1% and 0%
CCn1c(-c2nonc2N)nc2c(C#CC(C)(C)O)ncc(OC[C@@H]3CCCN3)c21 | 97% | -2% and -1%
Fc1ccc(-c2ncn(C3CCNCC3)c2-c2ccnc(Oc3ccc4c(c3)OCO4)n2)cc1 | -2% and 2% | -2% and -3%
Cn1cc(C=C2C(=O)Nc3cccnc32)c2ccccc21 | 7% and 10% | -5% and 0%
NS(=O)(=O)c1ccc(Nc2cc(-c3cccc(O)c3)n[nH]2)cc1 | -2% and -3% | -3% and -2%
CN1CCC(n2cnc(-c3ccc(F)cc3)c2-c2ccnc(N)n2)CC1 | 4% | -3%
Cc1cc(-c2ccco2)cc(C)c1/C=C/c1cncc(-c2nn[nH]n2)c1 | 9% and 11% | -1% and -3%
Cc1ccc(C(=O)NC2CCCCC2)cc1-c1ccc(C(=O)NCC2CC2)cc1 | 0% and -1% | 5% and 0%
CS(=O)(=O)Nc1ccc(N/C=C2\C(=O)Nc3ccccc32)cc1 | 25% and 24% | -1% and -4%
CCn1c(-c2nonc2N)nc2cncc(C(=O)N3CC[C@H](N)C3)c21 | 54% and 53% | -1% and -5%
CNC(=O)c1cncc(/C=C/c2ccccc2Cl)c1 | 0% | -5%
CC(C)c1ccc(-c2cc(-c3c[nH]nc3-c3ccccn3)ccn2)cc1 | -5% | -3% and -1%
Fc1ccc(-c2ncn(CCCN3CCOCC3)c2-c2ccncc2)cc1 | 0% | 0% and -5%
COc1ccc(-c2cc(-c3c[nH]nc3-c3ccccn3)ccn2)cc1 | -2% and -1% | -7% and -8%
Nc1ncnc2occ(-c3ccc(NC(=O)Nc4cc(C(F)(F)F)cc(C(F)(F)F)c4)cc3)c12 | 7% and 8% | -4%

SMILES | inhibition [1] | inhibition [2]
Fc1ccc(-c2ncn(C3CCNCC3)c2-c2ccnc(Oc3ccc(Oc4ccccc4)cc3)n2)cc1 | 1% | 0%
CCn1c(-c2nonc2N)nc2c(C#CC(C)(C)O)ncc(OCC3CCNCC3)c21 | 96% | -3%
NS(=O)(=O)c1ccc(N/N=C2\C(=O)Nc3ccc(Cl)cc32)cc1 | 2% and 1% | -3% and -5%
NS(=O)(=O)c1ccc(-c2ccc3c(NC(=O)C4CC4)n[nH]c3c2)cc1 | 1% and -2% | -7% and -3%
CCn1c(-c2nonc2N)nc2c(C#CC(C)(C)O)ncc(OC3CCNCC3)c21 | 95% and 96% | -4%
CN(c1ccc(NC(=O)Nc2ccc(OC(F)(F)F)cc2)cc1)c1ccnc(Nc2cccc(S(N)(=O)=O)c2)n1 | 17% and 18% | -5% and -4%
NCc1ccc(-c2nc(-c3ccc(Cl)c(O)c3)c(-c3ccncc3)[nH]2)cc1 | -1% and 0% | 2%
CCn1c(-c2nonc2N)nc2ccccc21 | -1% and -2% | -5% and -4%
COc1cc2ncn(-c3cc(OCc4ccccc4S(C)(=O)=O)c(C#N)s3)c2cc1OC | 90% and 88% | -5% and -2%
COc1ccc(-c2oc3ncnc(N)c3c2-c2ccc(NC(=O)Nc3cc(C(F)(F)F)ccc3F)cc2)cc1 | 9% and 10% | -8% and -6%
NC(=O)c1sc(-n2cnc3cc(C(F)(F)F)ccc32)cc1OCc1ccccc1Br | 3% and 2% | -4% and -3%
Cc1cc(Cl)cc2c1NC(=O)C2=NNc1ccc(S(N)(=O)=O)cc1 | 4% | -6% and -1%
c1ccc(Oc2ccc(Nc3ncc(-c4ccccc4)o3)cc2)cc1 | -2% and -1% | -5% and -2%
O=C1Nc2ccc(-c3cccnc3)cc2C1=Cc1cc(Br)c(O)c(Br)c1 | 37% and 39% | -5% and -4%
FC(F)(F)CNc1nccc(-c2cnn3ncccc23)n1 | -2% and -1% | -5% and 2%
COc1ccc2cc(-c3c(-c4ccncc4)nc(-c4ccc([S+](C)[O-])cc4)n3C)ccc2c1 (stereo not given) | -1% and 2% | 2% and 3%
Nc1nccc(C#Cc2cncnc2Nc2ccc(OCc3cccc(F)c3)c(Cl)c2)n1 | 2% and 4% | -6% and -7%

The remaining lines, values ahead:

inhibition [1] | inhibition [2] | SMILES
8% and 7% | 3% and -7% | CCS(=O)(=O)c1ccc(OC)c(Nc2nccc(N(C)c3ccc4c(C)n[nH]c4c3)n2)c1
-2% and 0% | -4% | CCC(=O)Nc1ccc(C)c(-c2ccc(C(=O)NCC3CC3)cc2)c1
-3% and -1% | 0% and 6% | CCc1cccc(NC(=O)Nc2ccc(Oc3ccc4nc(NC(=O)OC)[nH]c4c3)cc2)c1
-1% and 2% | 0% and -1% | Cc1c2ccc(N(C)c3ccnc(Nc4cccc(S(N)(=O)=O)c4)n3)cc2nn1C
0% and 1% | -3% and -1% | Nc1nc(-c2ccc(F)cc2)c(-c2ccc3ncccc3n2)s1
1% and 4% | -2% and -1% | CS(=O)(=O)CCN(CC#N)Cc1ccc(-c2ccc3ncnc(Nc4ccc(OCc5cccc(F)c5)c(Cl)c4)c3c2)o1
0% and -3% | -3% | CC1=C(C(=O)Nc2ccc3[nH]ncc3c2)C(c2ccc3ccccc3c2)CC(=O)N1 (stereo not given)
13% and 12% | -3% and -1% | CCCN1CCC=C(c2ccc(Nc3nc(Nc4ccccc4C(N)=O)c4cc[nH]c4n3)c(C)c2)C1
-1% and -3% | -2% and -1% | CCN1CCC(CC(=O)Nc2n[nH]c3nnc(-c4cccc(F)c4F)cc23)CC1
1% | 0% and -5% | Cc1ccc(O)cc1Nc1ccnc2cc(-c3ccccn3)ccc12
-1% | -4% and -2% | CC(=O)Nc1cccc(C#Cc2cncnc2Nc2ccc(OCc3cccc(F)c3)c(Cl)c2)n1
2% | 5% and -4% | COc1cc2ncnc(Nc3ccc4c(cnn4Cc4ccccc4)c3)c2cc1OC
-4% and -3% | -2% and -4% | Cc1ccc(-c2cc3c(NC(=O)C4CC4)ncnc3o2)cc1
1% | -4% | COc1ccc(-c2nn3ncccc3c2-c2ccnc(Nc3ccc4c(c3)OCCO4)n2)cc1
2% and 1% | 1% and -1% | COC(=O)Nc1nc2cc(Oc3ccc(NC(=O)Nc4ccccc4)cc3)ccc2[nH]1
0% and 1% | -1% and -2% | COc1cc(N2CCN(C(C)C)CC2)ccc1Nc1nc(Nc2ccc(F)cc2C(=O)NC[C@@H](O)CO)c2cc[nH]c2n1
6% and 5% | -3% | CN1CCN(Cc2ccc(-c3cc4ncnc(Nc5ccc(OCc6cccc(F)c6)c(Cl)c5)c4s3)o2)CC1
13% | -3% and -5% | CN(c1ccc(NC(=O)Nc2c(Cl)cccc2Cl)cc1)c1ccnc(Nc2cccc(CS(C)(=O)=O)c2)n1
5% and 4% | -2% and -6% | COc1ccc(Nc2ncc(-c3ccccc3)o2)cc1OC
0% and 2% | -6% and -8% | Cc1ccc(O)cc1Nc1ccnc2ccc(S(C)(=O)=O)cc12
7% and 6% | -6% and -4% | COc1cc2c(cc1Nc1nc(Nc3ccsc3C(N)=O)c3cc[nH]c3n1)N(C(=O)CN(C)C)CCC2
1% and 2% | 2% and 3% | [O-][S+]1CCN(Cc2ccc(-c3ccc4ncnc(Nc5ccc(OCc6cccc(F)c6)c(Cl)c5)c4c3)o2)CC1
0% and -1% | 3% and 4% | CNC(=O)c1cc(-c2ccc(F)cc2)cc(-c2ccc(S(=O)(=O)N3CCCC3)cc2)c1N
2% (2×) and 1% | -1% [middle of 4 runs] | CN1CCC(C(=O)Nc2n[nH]c3nc(-c4ccc(O)cc4)c(Br)cc23)CC1
-1% | -4% | Cc1nnc(-c2cccc(-c3ccc(C(=O)NCC4CC4)cc3)c2)o1
